{
  "source": "ChEMBL document CHEMBL3046036",
  "about": "“Bioactivity of the fungal metabolite (8R,16R)-(-)-pyrenophorin on graminaceous plants” (J Agric Food Chem, 2005)",
  "type_in_all_cases": "functional",
  "key": {"[1]": {"system": "Triticum aestivum", "assay": "Inhibition of Triticum aestivum (wheat) seed germination at 20 degC at 320 uM (reference value: 0%)"}, "[2]": {"system": "Triticum aestivum", "assay": "Inhibition of Triticum aestivum (wheat) seed germination at 20 degC at 200 uM (reference value: 0%)"}, "[3]": {"system": "Triticum aestivum", "assay": "Inhibition of Triticum aestivum (wheat) seed germination at 20 degC at 100 uM (reference value: 0%)"}, "[4]": {"system": "Triticum aestivum", "assay": "Inhibition of Triticum aestivum (wheat) seed germination at 20 degC at 90 uM (reference value: 0%)"}, "[5]": {"system": "Triticum aestivum", "assay": "Inhibition of Triticum aestivum (wheat) seed germination at 20 degC at 80 uM (reference value: 0%)"}, "[6]": {"system": "Triticum aestivum", "assay": "Inhibition of Triticum aestivum (wheat) seed germination at 20 degC at 70 uM (reference value: 0%)"}, "[7]": {"system": "Triticum aestivum", "assay": "Inhibition of Triticum aestivum (wheat) seed germination at 20 degC at 60 uM (reference value: 0%)"}, "[8]": {"system": "Triticum aestivum", "assay": "Inhibition of Triticum aestivum (wheat) seed germination at 20 degC at 10 to 50 uM (reference value: 0%)"}, "[9]": {"system": "Avena sativa", "assay": "Inhibition of Avena sativa seed germination at 20 degC at 640 uM (reference value: 0%)"}, "[10]": {"system": "Avena sativa", "assay": "Inhibition of Avena sativa seed germination at 20 degC at 320 uM (reference value: 0%)"}, "[11]": {"system": "Avena sativa", "assay": "Inhibition of Avena sativa seed germination at 20 degC at 200 uM (reference value: 0%)"}, "[12]": {"system": "Avena sativa", "assay": "Inhibition of Avena sativa seed germination at 20 degC at 100 uM (reference value: 0%)"}, "[13]": {"system": "Avena sativa", "assay": "Inhibition of Avena sativa seed germination at 20 degC at 80 uM (reference value: 0%)"}, "[14]": {"system": "Avena sativa", "assay": "Inhibition of Avena sativa seed germination at 20 degC at 90 uM (reference value: 0%)"}, "[15]": {"system": "Avena sativa", "assay": "Inhibition of Avena sativa seed germination at 20 degC at 70 uM (reference value: 0%)"}, "[16]": {"system": "Avena sativa", "assay": "Inhibition of Avena sativa seed germination at 20 degC at 60 uM (reference value: 0%)"}, "[17]": {"system": "Avena sativa", "assay": "Inhibition of Avena sativa seed germination at 20 degC at 10 to 50 uM (reference value: 0%)"}, "[18]": {"system": "Avena fatua", "assay": "Inhibition of Avena fatua seed germination at 20 degC at 640 uM (reference value: 0%)"}, "[19]": {"system": "Avena fatua", "assay": "Inhibition of Avena fatua seed germination at 20 degC at 320 uM (reference value: 0%)"}, "[20]": {"system": "Avena fatua", "assay": "Inhibition of Avena fatua seed germination at 20 degC at 200 uM (reference value: 0%)"}, "[21]": {"system": "Avena fatua", "assay": "Inhibition of Avena fatua seed germination at 20 degC at 100 uM (reference value: 0%)"}, "[22]": {"system": "Avena fatua", "assay": "Inhibition of Avena fatua seed germination at 20 degC at 90 uM (reference value: 0%)"}, "[23]": {"system": "Avena fatua", "assay": "Inhibition of Avena fatua seed germination at 20 degC at 80 uM (reference value: 0%)"}, "[24]": {"system": "Avena fatua", "assay": "Inhibition of Avena fatua seed germination at 20 degC at 60 uM (reference value: 0%)"}, "[25]": {"system": "Avena fatua", "assay": "Inhibition of Avena fatua seed germination at 20 degC at 70 uM (reference value: 0%)"}, "[26]": {"system": "Avena fatua", "assay": "Inhibition of Avena fatua seed germination at 20 degC at 10 to 50 uM (reference value: 0%)"}, "[27]": {"system": "Avena sterilis", "assay": "Inhibition of Avena sterilis seed germination at 20 degC at 640 uM (reference value: 0%)"}, "[28]": {"system": "Avena sterilis", "assay": "Inhibition of Avena sterilis seed germination at 20 degC at 320 uM (reference value: 0%)"}, "[29]": {"system": "Avena sterilis", "assay": "Inhibition of Avena sterilis seed germination at 20 degC at 200 uM (reference value: 0%)"}, "[30]": {"system": "Avena sterilis", "assay": "Inhibition of Avena sterilis seed germination at 20 degC at 100 uM (reference value: 0%)"}, "[31]": {"system": "Avena sterilis", "assay": "Inhibition of Avena sterilis seed germination at 20 degC at 80 uM (reference value: 0%)"}, "[32]": {"system": "Avena sterilis", "assay": "Inhibition of Avena sterilis seed germination at 20 degC at 90 uM (reference value: 0%)"}, "[33]": {"system": "Avena sterilis", "assay": "Inhibition of Avena sterilis seed germination at 20 degC at 70 uM (reference value: 0%)"}, "[34]": {"system": "Avena sterilis", "assay": "Inhibition of Avena sterilis seed germination at 20 degC at 60 uM (reference value: 0%)"}, "[35]": {"system": "Avena sterilis", "assay": "Inhibition of Avena sterilis seed germination at 20 degC at 10 to 50 uM (reference value: 0%)"}},
  "data": [
    {"smiles": "C[C@@H]1CCC(=O)/C=C/C(=O)O[C@H](C)CCC(=O)/C=C/C(=O)O1", "note": "[(8R,16R)-(-)-pyrenophorin]", "values": [
      {"measurement": "inhibition at 320 µM", "setting": "[1]", "value": 98, "unit": "%"},
      {"measurement": "inhibition at 200 µM", "setting": "[2]", "value": 90.6, "unit": "%"},
      {"measurement": "inhibition at 100 µM", "setting": "[3]", "value": 90.8, "unit": "%"},
      {"measurement": "inhibition at 90 µM", "setting": "[4]", "value": 86.2, "unit": "%"},
      {"measurement": "inhibition at 80 µM", "setting": "[5]", "value": 81.4, "unit": "%"},
      {"measurement": "inhibition at 70 µM", "setting": "[6]", "value": 67.8, "unit": "%"},
      {"measurement": "inhibition at 60 µM", "setting": "[7]", "value": 12.4, "unit": "%"},
      {"measurement": "inhibition (INH)", "setting": "[8]", "value": 0, "unit": "%"},
      {"measurement": "inhibition at 640 µM", "setting": "[9]", "value": 100, "unit": "%"},
      {"measurement": "inhibition at 320 µM", "setting": "[10]", "value": 100, "unit": "%"},
      {"measurement": "inhibition at 200 µM", "setting": "[11]", "value": 95.6, "unit": "%"},
      {"measurement": "inhibition at 100 µM", "setting": "[12]", "value": 93.5, "unit": "%"},
      {"measurement": "inhibition at 80 µM", "setting": "[13]", "value": 82.6, "unit": "%"},
      {"measurement": "inhibition at 90 µM", "setting": "[14]", "value": 89, "unit": "%"},
      {"measurement": "inhibition at 70 µM", "setting": "[15]", "value": 71.5, "unit": "%"},
      {"measurement": "inhibition at 60 µM", "setting": "[16]", "value": 14.5, "unit": "%"},
      {"measurement": "inhibition (INH)", "setting": "[17]", "value": 0, "unit": "%"},
      {"measurement": "inhibition at 640 µM", "setting": "[18]", "value": 100, "unit": "%"},
      {"measurement": "inhibition at 320 µM", "setting": "[19]", "value": 100, "unit": "%"},
      {"measurement": "inhibition at 200 µM", "setting": "[20]", "value": 97.9, "unit": "%"},
      {"measurement": "inhibition at 100 µM", "setting": "[21]", "value": 95.3, "unit": "%"},
      {"measurement": "inhibition at 90 µM", "setting": "[22]", "value": 87.8, "unit": "%"},
      {"measurement": "inhibition at 80 µM", "setting": "[23]", "value": 82, "unit": "%"},
      {"measurement": "inhibition at 60 µM", "setting": "[24]", "value": 12.5, "unit": "%"},
      {"measurement": "inhibition at 70 µM", "setting": "[25]", "value": 69.9, "unit": "%"},
      {"measurement": "inhibition (INH)", "setting": "[26]", "value": 0, "unit": "%"},
      {"measurement": "inhibition at 640 µM", "setting": "[27]", "value": 100, "unit": "%"},
      {"measurement": "inhibition at 320 µM", "setting": "[28]", "value": 100, "unit": "%"},
      {"measurement": "inhibition at 200 µM", "setting": "[29]", "value": 100, "unit": "%"},
      {"measurement": "inhibition at 100 µM", "setting": "[30]", "value": 96.8, "unit": "%"},
      {"measurement": "inhibition at 80 µM", "setting": "[31]", "value": 84.4, "unit": "%"},
      {"measurement": "inhibition at 90 µM", "setting": "[32]", "value": 89.6, "unit": "%"},
      {"measurement": "inhibition at 70 µM", "setting": "[33]", "value": 68.5, "unit": "%"},
      {"measurement": "inhibition at 60 µM", "setting": "[34]", "value": 15, "unit": "%"},
      {"measurement": "inhibition (INH)", "setting": "[35]", "value": 0, "unit": "%"}
    ]}
  ]
}
